Measurements reported in the NIST ThermoML archive (doi:10.1021/je500284p).

Details: 101.33 kPa, Liquid

NC=O [formamide]
Details | viscosity [mPa·s]
298.15 K | 3.23
303.15 K | 2.95
308.15 K | 2.67
313.15 K | 2.43
318.15 K | 2.2
323.15 K | 1.99
328.15 K | 1.82
333.15 K | 1.69
338.15 K | 1.58
343.15 K | 1.52
348.15 K | 1.49
